“Also recorded” adds a separate entry of the source.
Experiments:
pancreatic glucokinase = target: T1, pancreatic glucokinase (Homo sapiens, UniProt P35557); assay: Glucokinase activation assay (ATP level); assay type: biochemical; details: ATP level readout; GK-A positive control
T1 sequence (P35557 1-465): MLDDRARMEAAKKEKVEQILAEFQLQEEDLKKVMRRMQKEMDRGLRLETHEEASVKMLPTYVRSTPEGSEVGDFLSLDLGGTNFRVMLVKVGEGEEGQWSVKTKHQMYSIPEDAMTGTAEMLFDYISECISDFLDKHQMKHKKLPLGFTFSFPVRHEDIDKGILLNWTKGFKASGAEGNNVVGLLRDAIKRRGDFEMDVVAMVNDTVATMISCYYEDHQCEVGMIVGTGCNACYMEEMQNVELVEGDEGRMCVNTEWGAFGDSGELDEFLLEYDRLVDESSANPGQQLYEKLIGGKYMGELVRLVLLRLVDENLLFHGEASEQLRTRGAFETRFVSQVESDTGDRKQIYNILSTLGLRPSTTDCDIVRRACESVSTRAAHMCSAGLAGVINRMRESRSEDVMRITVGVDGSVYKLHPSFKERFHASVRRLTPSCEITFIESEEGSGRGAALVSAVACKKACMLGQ
Source text: FIG. 11 depicts the lack of effect of Compound 8 on glucokinase activity in cells treated with the indicated compounds. The assay is based on the measurement of ATP level. In presence of GK we observe a reduction of level of ATP with respect to the negative control (DMSO).
To rule out the possibility of Compound 8 acting as a glucokinase agonist, another well-established mechanism of augmenting insulin secretion, the compound was subjected to a glucokinase activation assay (FIG. 11).

Microsome t1/2, mouse = assay type: in vitro ADME; details: Mouse (CD-1) microsomes
Experimental: (§1) The pharmacokinetic activity profile of Compound 8 was assessed by various standard in vitro measurements. Measurements were performed on human, mouse (CD-1) and rat (SD) microsomes to determine the t1/2, the plasma protein binding (“PPB”) and the plasma stability (“PS”).

Microsome t1/2, human = assay type: in vitro ADME; details: Human microsomes
Experimental: as §1

cAMP = cAMP HTRF assay (Cisbio); assay type: cell-based; details: HTRF competition assay; increase in cAMP seen as decrease in signal
Source text: FIG. 9 depicts the quantification of cAMP activity in cells treated with the indicated compound in a HTRF assay from Cisbio.
(§2) Further investigation into Compound 8 included measuring levels of the secondary messengers cAMP (FIG. 9) and IP-1 (not shown) in treated cells, as compounds that increase these secondary messengers are known to augment insulin secretion, though often in ways that are not beta-cell specific.
CellTiter-Glo (Promega) and the cAMP Dynamic-2 HTRF assay (Cisbio) were used according to the manufacturers' instructions. Luciferase secretion and CellTiter-Glo experiments were performed using a 1 hr incubation with compound, whereas the cAMP assay was performed using a 30 min incubation. Secretion experiments were run in KRB buffer; all other experiments were run in standard INS-1E medium.

[1] = tested on: Mouse MING insulinoma cells; assay: Calcium influx assay (Fluo-4, FLIPR Tetra); assay type: cell-based
Experimental: Mouse MING insulinoma cells were cultured in DMEM medium supplemented with 10% FBS, 100 U/mL penicillin, 100 μg/mL streptomycin, and 55 μM β-mercaptoethanol. Two days prior to the experiment, cells were seeded in 384-well clear-bottom microplates at 17,500 cells/well. For calcium imaging, microplates were washed three times with Hanks' Balanced Salt Solution (HBSS, containing Ca^2+/Mg^2+) using the CyBio Well vario plate washer. Cells were loaded with 2 μM of the calcium indicator Fluo-4 for 1 hour at 37° C. in Krebs-Ringer buffer (KRB) with 3 g/L glucose. After dye loading, the cells were washed again with HBSS and incubated in KRB with 0.5 g/L glucose for 30 minutes at 37° C. (glucose starvation conditions). After glucose starvation, microplates were transferred to FLIPR Tetra, where an automated 384-well dispensing unit added glucose (glucose stimulation conditions) together with Compound 8. Positive control measurements (“+CNT”) were performed in wells with ionomycin to prompt calcium influx without the presence of glucose. Negative control measurements (“−CNT”) were also performed in wells with Compound 8 present in and without glucose. All wells were read simultaneously at 1 Hz intervals. FIG. 20 illustrates the fold increase of measured calcium over baseline measurements performed in the absence of glucose. […] Without wishing to be bound by theory, it is believed that insulin secretagogues acts between KATP channels stimulated by glucose, and the calcium channels that induce insulin secretion.

Microsome t1/2, rat = assay type: in vitro ADME; details: Rat (SD) microsomes
Experimental: as §1

IP-1 = IP-1 secondary messenger level in treated cells; assay type: cell-based; details: treated cells (data not shown)
Source text: as §2

Cc1cccc(NC(=O)c2ccc(OCc3c(C)noc3C)cc2)c1C [Compound 8]
glucokinase activation (pancreatic glucokinase): did not show any significant activation effect; also recorded: no change in assay signal
half-life (Microsome t1/2, mouse): 4.6 h
half-life (Microsome t1/2, human): 19.3 h
cAMP level (cAMP): did not increase levels
calcium influx in β-cells in the presence of glucose ([1]; glucose stimulation conditions (16.7 mM glucose), 1 μM, 10 μM): does promote calcium influx
dose dependence of calcium influx in beta cells ([1]; only in the presence of glucose): dose dependent response
calcium influx in β-cells in the absence of glucose ([1]; without glucose): does not invoke a calcium influx
half-life (Microsome t1/2, rat): 3.62 h
IP-1 level (IP-1): did not increase levels

From patent US11555031B2, “Compounds and methods for regulating insulin secretion” (The Broad Institute, Inc., priority 2017, dated 2023)
